Results on one compound are retold here after PMC9096165 (Frontiers in Pharmacology, 2022).

One data set concerns TRPV1. The experiment in a line: TRPV1 Western blotting in bladder homogenates. The settings on record: preventive: 20 mg kg^−1 + 7 mg kg^−1 twice daily for 7 days; Western blot, CYP rats. The format is in vivo, rat. The method, then:
(§1) Animals pre-treated with the vehicle or a single high oral dose of DF2755A (20 mg kg^−1; 12 h before the first CYP administration) followed by repeated lower doses administration (7 mg kg^−1 twice daily for 7 days) during IC development were deeply anesthetized with isoflurane (4%) and then killed.
(§2) After killing, rat abdomen was opened through a midline incision, and bladder and proximal urethra were exposed. A catheter was inserted into the bladder through the urethra and a loose ligature was placed around the neck of the urinary bladder. Bladder was inflated with saline via the catheter to slightly distend the bladder and ligature was tightened to maintain proper distension. […] One piece (B1) was placed in Eppendorf, then snap-frozen in liquid nitrogen, and stored at −80°C until quantification using ELISA assay. […] For the microscopic observations of bladder inflammation, the following parameters were analyzed: bladder edema in scores (n = 10/group), bladder hemorrhage in scores (n = 10/group), urothelial loss in scores (n = 10/group), and total inflammatory score, which was calculated by adding all the individual lesion scores (n = 10/group).
Protease and phosphatase inhibitors were added to the bladder homogenates extracted. […] The extracted proteins were quantified using BCA assay (Thermo, United States). […]
Background: In western blotting, separated proteins are transferred to a membrane and probed.

The test system of the next data set is CXCL5. The experiment in a line: CXCL5 ELISA in bladder tissue. The settings on record: preventive: 20 mg kg^−1 + 7 mg kg^−1 twice daily for 7 days, CYP rats. The class given is in vivo, rat. The method, then:
as §1
as §2, with “distension. Bladder was then excised cutting above the insertion point of ureters, and therefore the bladder neck was not included into the bladder sample.” for “distension.”, “10/group). […]” for “10/group).”
For orientation: In an ELISA, binding on a coated surface is turned into a signal by an enzyme label.

The subject of the next data set is CXCR1. The experiment in a line: CXCR1 mRNA expression in F11 cells (RT PCR). The settings on record: DF2755A 1 µM + CYP 100 nM. The format is cell-based. The source says: (§3) For these experiments, cells at 18th passage were used.
(§4) Triplicate samples were run for each gene.

Another data set deals with CXCL1. The experiment in a line: CXCL1 mRNA expression in F11 cells (RT PCR). The format is cell-based. The settings on record: DF2755A 1 µM + CYP 100 nM.
Source text: as §3, §4

With `C[C@H](C(=O)[O-])c1ccc(Nc2nc(C(F)(F)F)cs2)cc1.[Na+]` [DF2755A, sodium (2S)-2-(4-{[4-(trifluoromethyl)-1,3-thiazol-2-yl]amino}phenyl)propanoate], in the data set on TRPV1, the “TRPV1 bladder expression versus vehicle-treated animals” value was “reduced”. Also, the “bladder tissue expression of CXCL5 versus vehicle-treated rats” value in the data set with CXCL5 is given as “strongly inhibited”. Besides, the “CXCR1 mRNA expression in CYP-exposed cells” value in the data set with CXCR1 was “restored the mRNA expression of all the targets to control values”. Besides, the “CXCL1 mRNA expression in CYP-exposed cells” value with CXCL1 was “restored the mRNA expression of all the targets to control values”.
